{
  "source": "patent US12544442B2",
  "about": "“Biocompatible nanomagnetic discs and methods of use thereof” (priority 2018, dated 2026)",
  "key": {"[1]": {"tested_on": "HL60 cells", "test": "Rat HL60/estradiol tumor model with magnetic field exposure, cancer cell count in blood", "format": "in vivo", "procedure": "(§1) Efficacy studies of BMND were conducted in a rat model. Rats were injected with HL60 cells and estradiol to induce the generation of tumors on various organs. This is a well-established rat model of human tumors. The positive control comprised six healthy rats with no tumor induction and no drug treatment. The negative control comprised six tumor bearing rats with no drug treatment. The test groups included six rats in each group, all induced for tumors, and treated with either paclitaxel (gold standard chemotherapeutic; 40 mg/KG body weight), anti-HL60-BMND at 100 μg/kG body weight, or anti-HL60-BMND at 200 μg/KG body weight.\n(§2) Procedure: Rats were inoculated with estradiol-17ß (1.7 mg/pellet) before an injection of 1×10^7 HL60 cells intravenously into tail vein. If tumor observed at various organs, the tumor size could be measured in three dimensions with calipers every 2 days starting at day 7. If tumor was not observed/not palpable, then tumor induction was confirmed by histopathology. […] After confirmation of tumor induction by histopathology, treatment was started.\nThe rats were exposed to magnetic field according to the following protocol. Rats strapped to the VFVF magnetizer as described above. The device was switched on to apply magnetic force of known intensity, frequency and duration to cause “flip/flop” action in the biocompatible magnetic nanodiscs. This application of oscillating field force is expected to cause the Nanomagnetic particles bound to the cell to “flip/flop.” This action is expected to damage the cell wall leading to apoptosis. The following parameters were recorded: Treatment Time—60 minutes; Magnetic field intensity—90 G (Gauss); Frequency—20 Hz. Waveform—sinusoidal\nCancer cell count in blood was ascertained for the treatment groups."}, "[2]": {"tested_on": "HL60 cells", "test": "Rat HL60/estradiol tumor model with magnetic field exposure, tumor histopathology (H&E)", "format": "in vivo", "conditions": "paclitaxel treated group, 40 mg/kg body weight; H&E 400×", "procedure": "as §1, §2\nThe rats were exposed to magnetic field according to the following protocol. […] The following parameters were recorded: Treatment Time—60 minutes; Magnetic field intensity—90 G (Gauss); Frequency—20 Hz. […]\nConfirmation of tumor was assessed as follows: Formalin fixed tissue of tumor area samples from various organs were received. […]"}, "[3]": {"conditions": "Paclitaxel 40 mg/kg body weight"}, "[4]": {"conditions": "STD group (Paclitaxel 40 mg/kg), baseline"}},
  "data": [
    {"smiles": "CC(=O)O[C@H]1C(=O)[C@@]2(C)[C@H]([C@H](OC(=O)c3ccccc3)[C@]3(O)C[C@H](OC(=O)[C@H](O)[C@@H](NC(=O)c4ccccc4)c4ccccc4)C(C)=C1C3(C)C)[C@]1(OC(C)=O)CO[C@@H]1C[C@@H]2O", "note": "[Paclitaxel]", "values": [
      {"measurement": "Apoptotic cancer cells present per ml in the blood, After treatment 144 hrs", "setting": "[1]; [3]", "value": "5.20 × 10^3 per ml in the blood"},
      {"measurement": "Viable cancer cells present per ml of blood, After treatment 144 hrs", "setting": "[1]; [3]", "value": "5.47 × 10^3 per ml of blood"},
      {"measurement": "Apoptotic cancer cells present per ml in the blood, Before treatment", "setting": "[1]; [4]", "value": 852, "unit": "per ml in the blood"},
      {"measurement": "Viable cancer cells present per ml of blood, Before treatment", "setting": "[1]; [4]", "value": "16.08 × 10^3 per ml of blood"},
      {"measurement": "tumor histopathology (FIG. 8C)", "setting": "[2]", "value": "neoplastic cells (small arrow) with stromal reaction, mitotic figures (arrow head), inflammation and necrosis (large arrow)"}
    ]}
  ]
}
